In article PMC6010021, “Mono- and di-thiocarbamate inhibition studies of the δ-carbonic anhydrase TweCAδ from the marine diatom Thalassiosira weissflogii” (Journal of Enzyme Inhibition and Medicinal Chemistry, 2018) one finds Ki data, which are given here for 34 molecules.

Molecules are shown by their SMILES.

This test addresses T1, TweCAδ (Conticribra weissflogii, UniProt Q5U9J1).
T1 construct: gene ca1; recombinant protein produced as reported earlier by the group
T1 sequence (Q5U9J1 1-281): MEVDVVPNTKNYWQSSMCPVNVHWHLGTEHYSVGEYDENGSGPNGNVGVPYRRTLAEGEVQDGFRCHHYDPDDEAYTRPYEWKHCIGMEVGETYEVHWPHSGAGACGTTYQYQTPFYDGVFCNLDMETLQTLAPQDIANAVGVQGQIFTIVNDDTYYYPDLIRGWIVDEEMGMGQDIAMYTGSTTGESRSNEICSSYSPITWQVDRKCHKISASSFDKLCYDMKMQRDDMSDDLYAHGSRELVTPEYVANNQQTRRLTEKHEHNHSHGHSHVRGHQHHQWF
Kind of test: stopped-flow CO2 hydrase assay. Format: biochemical. The conditions noted are these: read-out: RR^1NCS2M (16-36) / KI (nM)^a / TweCAδ.
Consider `CCCN(CCC)C(=O)S` [compound 1, MTC 1], for which the Ki came out at 807 nM.
To `O=C(O)C1COCCN1C(=S)S` (stereo not shown) [compound 33, DTC 33] belongs > 20000 nM; to `NS(=O)(=O)c1ccc(CCNC(=S)S)cc1` [compound 36, DTC 36], 704 nM.
Under `O=C(O)[C@@H]1CCCN(C(=S)S)C1` [compound 27, DTC 27] stands 93.6 nM.
With `OCCCCNC(=S)S` [compound 18, DTC 18], the Ki worked out at 7170 nM.
Take `O=C(S)N1CCN(c2ccc(F)cc2)CC1` [compound 14, MTC 14]: the Ki is 1500 nM.
As to `S=C(S)N[C@@H]1CN2CCC1CC2` [compound 22, DTC 22], the Ki is 7990 nM.
Under `O=C(S)N1CCN(c2ccc(C(F)(F)F)cc2)CC1` [compound 15, MTC 15] stands 1150 nM; under `CN1CCN(NC(=O)S)CC1` [compound 7, MTC 7], 487 nM; under `O=C(CN1CCN(C(=S)S)CC1)NC1CCCCC1` [compound 34, DTC 34], 791 nM.
In the case of `O=C(CN1CCN(C(=O)S)CC1)NC1CCCCC1` [compound 9, MTC 9], the Ki was found to be 129 nM.
Under `CCCCN(CCCC)C(=O)S` [compound 3, MTC 3] stands 1140 nM.
Under `S=C(S)N[C@H]1CN2CCC1CC2` [compound 21, DTC 21] stands > 20000 nM; under `S=C(S)N1CCCCC1` [compound 23, DTC 23], > 20000 nM; under `O=C(O)C1CCN(C(=S)S)CC1` [compound 29, DTC 29], 8980 nM.
To `O=C(S)NCCc1ccccc1` [compound 11, MTC 11] belongs 997 nM.
Take `CC(=O)NC1CCCN(C(=S)S)C1` (stereo not shown) [compound 30, DTC 30]: the Ki turned out to be 783 nM.
For the molecule `OCCCCCNC(=S)S` [compound 19, DTC 19], the Ki was determined as 8600 nM.
Under `COc1ccc(CCNC(=O)S)cc1OC` [compound 12, MTC 12] stands 67.7 nM.
Under `OCCCNC(=S)S` [compound 17, DTC 17] stands 8690 nM.
With `S=C(S)NCCc1ccccc1` [compound 35, DTC 35], the Ki was found to be 897 nM.
`CN(Cc1ccccc1)C(=O)S` [compound 10, MTC 10]: the Ki is > 20000 nM.
Under `CCCCN(CC)C(=O)S` [compound 2, MTC 2] stands 783 nM; under `O=C(S)N1CCN(c2cccc(Cl)c2)CC1` [compound 13, MTC 13], 1510 nM.
Under `S=C(S)NC1CN2CCC1CC2` (stereo not shown) [compound 20, DTC 20] stands > 20000 nM.
To `CC1COCCN1C(=S)S` (stereo not shown) [compound 32, DTC 32] belongs > 20000 nM; to `O=C(O)[C@H]1CCCN(C(=S)S)C1` [compound 28, DTC 28], 556 nM; to `CCOC(=O)CN(C)C(=O)S` [compound 5, MTC 5], > 20000 nM.
Consider `O=C(S)N1CCOCC1` [compound 6, MTC 6], for which the Ki is > 20000 nM.
To `O=C(O)C1CCCCN1C(=S)S` (stereo not shown) [compound 25, DTC 25] belongs > 20000 nM.
Turning to `O=C(O)C1CCCN(C(=S)S)C1` (stereo not shown) [compound 26, DTC 26], the Ki was determined as 8430 nM.
Under `CC(C)CN(CC(C)C)C(=O)S` [compound 4, MTC 4] stands > 20000 nM.
On to `CN(C)CCNC(=S)S` [compound 16, DTC 16], for which the Ki worked out at 8410 nM.
Consider `OC1CCCN(C(=S)S)C1` (stereo not shown) [compound 24, DTC 24], for which the Ki is > 20000 nM.
